This is an account of results in ChEMBL document CHEMBL5620392, “Spiroindole-containing compounds bearing phosphonate group of potential Mpro-SARS-CoV-2 inhibitory properties” (Eur J Med Chem, 2023).

For data set [1], the system named is SARS-CoV-2. Kind of data set: Antiviral activity against SARS-CoV-2 infected in African green monkey Vero E6 cells assessed as inhibition of viral infection. The data set is classed as functional, organism-based. The note with it: Severe acute respiratory syndrome coronavirus 2, Vero C1008.
A short description of data set [2]: Cytotoxicity against African green monkey Vero E6 cells assessed as reduction in cell viability. In kind it is toxicity, cell-based, Vero C1008. The note with it: chlorocebus sabaeus.
Data set [3] can be described thus: Selectivity index, ratio of CC50 for African green monkey Vero E6 cells to IC50 for SARS-CoV-2 infected in African green monkey Vero E6 cells. The data set is classed as toxicity. The conditions noted are these: read-out: Selectivity Index.
The test system of data set [4] is SARS-CoV-2. The data set is described as follows: Antiviral activity against SARS-CoV-2 infected in African green monkey Vero E6 cells. In kind it is functional, organism-based. The conditions noted are these: Severe acute respiratory syndrome coronavirus 2, Vero C1008.

The IC50 is the concentration that gives 50% inhibition. For orientation: CC50 means the concentration giving 50% cytotoxicity. Regarding `NC(=O)c1nc(F)cnc1O`, the IC50 in the data set on SARS-CoV-2 [1] stood at 1380 µM. Moreover, the CC50 in data set [2] turned out to be 5.26 mM. Moreover, the selectivity ratio in data set [3] was 3.8.
For `CCN(CC)CCCC(C)Nc1ccnc2cc(Cl)ccc12` (stereo not drawn) [CHLOROQUINE], in the data set on SARS-CoV-2 [1], the IC50 stood at 25 µM.
Take `CCN(CCO)CCCC(C)Nc1ccnc2cc(Cl)ccc12` (stereo not drawn) [HYDROXYCHLOROQUINE]: the IC50 in the data set on SARS-CoV-2 [1] came to 36.9 µM. Also, the CC50 in data set [2] was determined as 0.356 mM. In data set [3], the selectivity ratio worked out at 9.7.
One may read the EC50 as the concentration at which the effect is half-maximal. In the data set on SARS-CoV-2 [4], `COc1cccc2[nH]c(C(=O)N[C@@H](CC(C)C)C(=O)N[C@@H](C[C@@H]3CCNC3=O)C(=O)CO)cc12` [PF-00835231] displayed an EC50 of at most 230 nM.
